Source: paper PMC6081437, “The potency of the broad spectrum bacteriocin, bactofencin A, against staphylococci is highly dependent on primary structure, N-terminal charge and disulphide formation” (Scientific Reports, 2018)
Bridge positions count the residues as written; N and C are the ends. Square brackets hold non-standard residues; d marks the D form. Ends that are not written are not given here. Peptide text beside a SMILES is read from it.

System: S. aureus DPC5246
Type: cell-based, Staphylococcus aureus
Conditions: for Activity (Minimum Inhibitory Concentration, MIC): DPC5246, pH 6.8; for fold reduction in activity compared with bactofencin A (wild type): S. aureus DPC5246, agar well diffusion MIC
Protocol: Peptides were resuspended at 1000 µM in 50 mM sodium phosphate buffer pH 6.8 and checked for purity by MALDI-TOF-MS. Peptides were serially diluted 1 in 4 to give a dilution series of 250, 62.50, 15.63, 3.91, 0.98 and 0.24 µM and assayed by the agar well diffusion assay described by Ryan et al.[19]. Briefly, 50 µl aliquots of each peptide concentration were plated on a S. aureus DPC5246 indicator plate and the plate incubated at 37 °C. Peptide activity (Minimum Inhibitory Concentration (MIC)) was taken as the lowest concentration of peptide to give a zone of inhibition. All assays were performed in triplicate. The dilution series values were rounded to the nearest whole number to give 1000, 250, 63, 16, 4, 1 and 0.25 µM and data is colour coded for ease of interpretation.

Compound: KRKKHRARVYNNGMPTGMYRWC-OH [C7A]
- Activity (Minimum Inhibitory Concentration, MIC): 16 µM
- fold reduction in activity compared with bactofencin A (wild type): 16 fold

Compound: KRKKHRCRVYNNGMPTGMYRWA-OH [C22A]
- Activity (Minimum Inhibitory Concentration, MIC): 63 µM
- fold reduction in activity compared with bactofencin A (wild type): 63 fold

Compound: CSCC[C@@H]1NC(=O)CNC(=O)[C@H]([C@@H](C)O)NC(=O)[C@@H]2CCCN2C(=O)[C@H](CCSC)NC(=O)CNC(=O)[C@H](CC(N)=O)NC(=O)[C@H](CC(N)=O)NC(=O)[C@H](Cc2ccc(O)cc2)NC(=O)[C@H](C(C)C)NC(=O)[C@H](CCCNC(=N)N)NC(=O)[C@@H](N)CSSC[C@@H](C(=O)O)NC(=O)[C@H](Cc2c[nH]c3ccccc23)NC(=O)[C@H](CCCNC(=N)N)NC(=O)[C@H](Cc2ccc(O)cc2)NC1=O [C7-C22] (H-CRVYNNGMPTGMYRWC-OH; disulfide 1-16; N-terminus assumed)
- Activity (Minimum Inhibitory Concentration, MIC): > 1000 µM

Compound: CSCC[C@@H]1NC(=O)CNC(=O)[C@H]([C@@H](C)O)NC(=O)[C@@H]2CCCN2C(=O)[C@H](CCSC)NC(=O)CNC(=O)[C@H](CC(N)=O)NC(=O)[C@H](CC(N)=O)NC(=O)[C@H](Cc2ccc(O)cc2)NC(=O)[C@H](C(C)C)NC(=O)[C@H](CCCNC(=N)N)NC(=O)[C@@H](NC(=O)[C@H](CCCNC(=N)N)NC(=O)[C@H](Cc2c[nH]cn2)NC(=O)[C@H](CCCCN)NC(=O)[C@H](CCCCN)NC(=O)[C@H](CCCNC(=N)N)NC(=O)[C@@H](N)CCCCN)CSSC[C@@H](C(=O)O)NC(=O)[C@H](Cc2c[nH]c3ccccc23)NC(=O)[C@@H](CCCNC(=N)N)NC(=O)[C@H](Cc2ccc(O)cc2)NC1=O [R20Rd] (H-KRKKHRCRVYNNGMPTGMY[dR]WC-OH; disulfide 7-22; N-terminus assumed)
- Activity (Minimum Inhibitory Concentration, MIC): 4 µM

Compound: CSCC[C@@H]1NC(=O)CNC(=O)[C@H]([C@@H](C)O)NC(=O)[C@@H]2CCCN2C(=O)[C@H](CCSC)NC(=O)CNC(=O)[C@H](CC(N)=O)NC(=O)[C@H](CC(N)=O)NC(=O)[C@H](Cc2ccc(O)cc2)NC(=O)[C@H](C(C)C)NC(=O)[C@H](CCCNC(=N)N)NC(=O)[C@H](NC(=O)[C@H](CCCNC(=N)N)NC(=O)[C@H](Cc2c[nH]cn2)NC(=O)[C@H](CCCCN)NC(=O)[C@H](CCCCN)NC(=O)[C@H](CCCNC(=N)N)NC(=O)[C@@H](N)CCCCN)CSSC[C@@H](C(=O)O)NC(=O)[C@H](Cc2c[nH]c3ccccc23)NC(=O)[C@H](CCCNC(=N)N)NC(=O)[C@H](Cc2ccc(O)cc2)NC1=O [C7Cd] (H-KRKKHR[dC]RVYNNGMPTGMYRWC-OH; disulfide 7-22; N-terminus assumed)
- Activity (Minimum Inhibitory Concentration, MIC): 16 µM

Compound: CSCC[C@@H]1NC(=O)CNC(=O)[C@H]([C@@H](C)O)NC(=O)[C@@H]2CCCN2C(=O)[C@H](CCSC)NC(=O)CNC(=O)[C@H](CC(N)=O)NC(=O)[C@H](CC(N)=O)NC(=O)[C@H](Cc2ccc(O)cc2)NC(=O)[C@H](C(C)C)NC(=O)[C@H](CCCNC(=N)N)NC(=O)[C@@H](NC(=O)[C@H](CCCNC(=N)N)NC(=O)[C@H](Cc2c[nH]cn2)NC(=O)[C@H](CCCCN)NC(=O)[C@H](CCCCN)NC(=O)[C@H](CCCNC(=N)N)NC(=O)[C@@H](N)CCCCN)CSSC[C@@H](C(=O)O)NC(=O)[C@H](Cc2c[nH]c3ccccc23)NC(=O)[C@H](CCCNC(=N)N)NC(=O)[C@@H](Cc2ccc(O)cc2)NC1=O [Y19Yd] (H-KRKKHRCRVYNNGMPTGM[dY]RWC-OH; disulfide 7-22; N-terminus assumed)
- Activity (Minimum Inhibitory Concentration, MIC): 63 µM
- fold reduction in activity compared with bactofencin A (wild type): 63 fold

Compound: CSCC[C@@H]1NC(=O)CNC(=O)[C@H]([C@@H](C)O)NC(=O)[C@H]2CCCN2C(=O)[C@H](CCSC)NC(=O)CNC(=O)[C@H](CC(N)=O)NC(=O)[C@H](CC(N)=O)NC(=O)[C@H](Cc2ccc(O)cc2)NC(=O)[C@H](C(C)C)NC(=O)[C@H](CCCNC(=N)N)NC(=O)[C@@H](NC(=O)[C@H](CCCNC(=N)N)NC(=O)[C@H](Cc2c[nH]cn2)NC(=O)[C@H](CCCCN)NC(=O)[C@H](CCCCN)NC(=O)[C@H](CCCNC(=N)N)NC(=O)[C@@H](N)CCCCN)CSSC[C@@H](C(=O)O)NC(=O)[C@H](Cc2c[nH]c3ccccc23)NC(=O)[C@H](CCCNC(=N)N)NC(=O)[C@H](Cc2ccc(O)cc2)NC1=O [P15Pd] (H-KRKKHRCRVYNNGM[dP]TGMYRWC-OH; disulfide 7-22; N-terminus assumed)
- Activity (Minimum Inhibitory Concentration, MIC): > 1000 µM

Compound: CSCC[C@@H]1NC(=O)CNC(=O)[C@H]([C@@H](C)O)NC(=O)[C@@H]2CCCN2C(=O)[C@@H](CCSC)NC(=O)CNC(=O)[C@H](CC(N)=O)NC(=O)[C@H](CC(N)=O)NC(=O)[C@H](Cc2ccc(O)cc2)NC(=O)[C@H](C(C)C)NC(=O)[C@H](CCCNC(=N)N)NC(=O)[C@@H](NC(=O)[C@H](CCCNC(=N)N)NC(=O)[C@H](Cc2c[nH]cn2)NC(=O)[C@H](CCCCN)NC(=O)[C@H](CCCCN)NC(=O)[C@H](CCCNC(=N)N)NC(=O)[C@@H](N)CCCCN)CSSC[C@@H](C(=O)O)NC(=O)[C@H](Cc2c[nH]c3ccccc23)NC(=O)[C@H](CCCNC(=N)N)NC(=O)[C@H](Cc2ccc(O)cc2)NC1=O [M14Md] (H-KRKKHRCRVYNNG[dM]PTGMYRWC-OH; disulfide 7-22; N-terminus assumed)
- Activity (Minimum Inhibitory Concentration, MIC): 63 µM
- fold reduction in activity compared with bactofencin A (wild type): 63 fold

Compound: CSCC[C@@H]1NC(=O)CNC(=O)[C@H]([C@@H](C)O)NC(=O)[C@@H]2CCCN2C(=O)[C@H](CCSC)NC(=O)CNC(=O)[C@H](CC(N)=O)NC(=O)[C@H](CC(N)=O)NC(=O)[C@H](Cc2ccc(O)cc2)NC(=O)[C@H](C)NC(=O)[C@H](CCCNC(=N)N)NC(=O)[C@@H](NC(=O)[C@H](CCCNC(=N)N)NC(=O)[C@H](Cc2c[nH]cn2)NC(=O)[C@H](CCCCN)NC(=O)[C@H](CCCCN)NC(=O)[C@H](CCCNC(=N)N)NC(=O)[C@@H](N)CCCCN)CSSC[C@@H](C(=O)O)NC(=O)[C@H](Cc2c[nH]c3ccccc23)NC(=O)[C@H](CCCNC(=N)N)NC(=O)[C@H](Cc2ccc(O)cc2)NC1=O [V9A] (H-KRKKHRCRAYNNGMPTGMYRWC-OH; disulfide 7-22)
- Activity (Minimum Inhibitory Concentration, MIC): 4 µM

Compound: CSCC[C@@H]1NC(=O)CNC(=O)[C@H]([C@@H](C)O)NC(=O)[C@@H]2CCCN2C(=O)[C@H](CCSC)NC(=O)CNC(=O)[C@H](CC(N)=O)NC(=O)[C@H](CC(N)=O)NC(=O)[C@H](Cc2ccc(O)cc2)NC(=O)[C@H](C(C)C)NC(=O)[C@H](CCCNC(=N)N)NC(=O)[C@@H](NC(=O)[C@H](CCCNC(=N)N)NC(=O)[C@H](Cc2c[nH]cn2)NC(=O)[C@H](CCCCN)NC(=O)[C@H](C)NC(=O)[C@H](CCCNC(=N)N)NC(=O)[C@@H](N)CCCCN)CSSC[C@@H](C(=O)O)NC(=O)[C@H](Cc2c[nH]c3ccccc23)NC(=O)[C@H](CCCNC(=N)N)NC(=O)[C@H](Cc2ccc(O)cc2)NC1=O [K3A] (H-KRAKHRCRVYNNGMPTGMYRWC-OH; disulfide 7-22)
- Activity (Minimum Inhibitory Concentration, MIC): 1 µM

Compound: CSCC[C@@H]1NC(=O)CNC(=O)[C@H]([C@@H](C)O)NC(=O)[C@@H]2CCCN2C(=O)[C@H](CCSC)NC(=O)CNC(=O)[C@H](CC(N)=O)NC(=O)[C@H](CC(N)=O)NC(=O)[C@@H](Cc2ccc(O)cc2)NC(=O)[C@H](C(C)C)NC(=O)[C@H](CCCNC(=N)N)NC(=O)[C@@H](NC(=O)[C@H](CCCNC(=N)N)NC(=O)[C@H](Cc2c[nH]cn2)NC(=O)[C@H](CCCCN)NC(=O)[C@H](CCCCN)NC(=O)[C@H](CCCNC(=N)N)NC(=O)[C@@H](N)CCCCN)CSSC[C@@H](C(=O)O)NC(=O)[C@H](Cc2c[nH]c3ccccc23)NC(=O)[C@H](CCCNC(=N)N)NC(=O)[C@H](Cc2ccc(O)cc2)NC1=O [Y10Yd] (H-KRKKHRCRV[dY]NNGMPTGMYRWC-OH; disulfide 7-22; N-terminus assumed)
- Activity (Minimum Inhibitory Concentration, MIC): > 1000 µM
